Experimental data: patent US20070185094A1, “Novel 3-substitued-1,4-benzodiazepines” (ASTON UNIVERSITY, priority 2003, published 2007)
Where two headings read alike, the source gives them in different places.

Assays:
CCKB receptor = molecular target: T1, CCKB receptor (Cavia porcellus, UniProt H0VZC5); assay: 125I-CCK-8 receptor binding assay, CCKB (guinea pig cerebral cortex)
T1 sequence (H0VZC5 1-426): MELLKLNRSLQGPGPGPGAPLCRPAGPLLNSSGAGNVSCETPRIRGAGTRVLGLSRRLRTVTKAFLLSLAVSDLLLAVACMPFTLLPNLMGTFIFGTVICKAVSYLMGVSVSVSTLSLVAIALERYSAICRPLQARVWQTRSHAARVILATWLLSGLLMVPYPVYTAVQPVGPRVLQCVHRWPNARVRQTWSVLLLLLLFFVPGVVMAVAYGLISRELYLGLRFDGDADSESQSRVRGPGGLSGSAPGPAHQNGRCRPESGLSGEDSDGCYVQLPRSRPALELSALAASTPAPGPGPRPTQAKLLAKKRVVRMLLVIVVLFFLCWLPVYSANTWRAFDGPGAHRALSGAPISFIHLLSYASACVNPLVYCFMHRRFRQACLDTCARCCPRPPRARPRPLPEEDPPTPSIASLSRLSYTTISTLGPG
Experimental: CCKA and CCKB receptor binding assays were performed, by using guinea pig cerebral cortex (CCKB) or rat pancreas (CCKA). […]. J. Pharmacol., 269, 249-254]. Pancreatic membranes were prepared in a similar way but by Charpentier et al [(1988), Cyclic cholecystokinin analogues with high selectivity for central receptors., Proc Natl Acad Sci USA, 85, 1968-1972]. The […] CCK binding assay: Tissues were homogenised in ice cold sucrose (0.32 M, 25 ml) for 15 strokes at 500 rpm and centrifuged at 13000 rpm for 10 mins. The supernatant was re-centrifuged at 13000 rpm for 20 mins. The resulting pellet was re-dispersed to the required volume of buffer at 500 rpm and stored in aliquots at […].
(§1) The samples were incubated {with membranes (0.1 mg/ml)} in 20 mM Hepes, 1 mM EGTA, 5 mM MgCl2, 150 mm NaCl, 0.25 mg/ml bacitracin at pH 6.5 for 2 hrs at RT and then […] by centrifugation at 1100 rpm for 5 minutes. The membrane pellets were washed twice with water and the bound radioactivity was measured in a Packard Cobra Auto-gamma counter (B5005). All binding assays were carried out with L-363, 260 as an internal non-specific standard. Controls (no compound) were also added. All samples were made in duplicate and repeated twice. All compounds were initially screened for percentage inhibition at 20 μM.

CCKA receptor = molecular target: T2, CCKA receptor (Rattus norvegicus, UniProt P30551); assay: 125I-CCK-8 receptor binding assay, CCKA (rat pancreas); conditions: for Ratio CCKB:CCKA: ratio of IC50 values
T2 construct: Pancreatic membranes were prepared in a similar way; from tissue; host or cells: rat pancreas membranes
T2 sequence (P30551 1-444): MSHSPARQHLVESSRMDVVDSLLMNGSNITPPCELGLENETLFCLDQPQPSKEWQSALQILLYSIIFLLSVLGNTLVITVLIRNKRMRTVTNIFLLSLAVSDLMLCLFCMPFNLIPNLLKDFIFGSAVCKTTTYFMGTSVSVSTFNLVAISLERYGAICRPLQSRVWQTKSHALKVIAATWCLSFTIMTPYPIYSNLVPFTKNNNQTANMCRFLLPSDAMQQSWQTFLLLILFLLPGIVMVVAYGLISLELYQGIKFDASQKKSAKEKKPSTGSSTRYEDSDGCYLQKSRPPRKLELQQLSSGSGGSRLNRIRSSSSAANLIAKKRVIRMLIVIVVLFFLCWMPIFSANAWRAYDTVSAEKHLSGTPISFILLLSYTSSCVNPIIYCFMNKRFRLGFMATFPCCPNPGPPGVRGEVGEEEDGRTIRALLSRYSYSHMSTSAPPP
Experimental: CCKA and CCKB receptor binding assays were performed, by using guinea pig cerebral cortex (CCKB) or rat pancreas (CCKA). Male guinea pig brain tissues were prepared according to the modified method described by Saita et al [(1994), Characterization of YM022: its CCKB/gastrin receptor binding profile and antagonism to CCK-8-induced Ca2+ mobilization., Eur. J. Pharmacol., 269, 249-254]. Pancreatic membranes were prepared in a similar way but by Charpentier et al [(1988), Cyclic cholecystokinin analogues with high selectivity for central receptors., Proc Natl Acad Sci USA, 85, 1968-1972]. The […] CCK binding assay: Tissues were homogenised in ice cold sucrose (0.32 M, 25 ml) for 15 strokes at 500 rpm and centrifuged at 13000 rpm for 10 mins. The supernatant was re-centrifuged at 13000 rpm for 20 mins. The resulting pellet was re-dispersed to the required volume of buffer at 500 rpm and stored in aliquots at […].
as §1

[1] = IC50 CCKB, Table 4, alkylated oxazepam derivatives

With Cc1cccc(N(C)C2N=C(c3ccccc3)c3cc(Cl)ccc3N(CC(=O)C(C)(C)C)C2=O)c1 (racemic) [Example 64, 7-chloro-1-(3,3-dimethyl-2-oxobutyl)-3-(3-dimethylanilino)-5-phenyl-1,3-dihydro-2H-1,4-benzodiazepin-2-one] the IC50 (CCKB receptor; read-out: IC50 CCKB) was about 8 nM and the IC50 (CCKA receptor) was about 24 nM.
In the case of O=C1Nc2ccc(Cl)cc2C(c2ccccc2)=NC1Nc1cccc(Cl)c1 (single isomer, unassigned) [Example 2], the IC50 (CCKB receptor; CCKB IC50, Table 1) is reported as 320 nM.
Work on CN(Cc1ccccc1)C1N=C(c2ccccc2)c2cc(Cl)ccc2NC1=O (single isomer, unassigned) [Example 6] yielded an IC50 (CCKB receptor; CCKB IC50, Table 1) of 860 nM.
CC(C)N(C1CCCCC1)C1N=C(c2ccccc2)c2cc(Cl)ccc2NC1=O (single isomer, unassigned) [Example 8] showed an IC50 (CCKB receptor; IC50 CCKB) of 190 nM.
With CCCCc1ccc(NC2N=C(c3ccccc3)c3cc(Cl)ccc3NC2=O)cc1 (stereo not drawn) [Example 3] the IC50 (CCKB receptor; CCKB IC50, Table 1) was 580 nM.
Cc1ccc(NC2N=C(c3ccccc3)c3cc(Cl)ccc3NC2=O)cc1C (stereo not drawn) [Example 4] showed an IC50 (CCKB receptor; CCKB IC50, Table 1) of 660 nM.
O=C1Nc2ccc(Cl)cc2C(c2ccccc2)=NC1N1CCOCC1 (stereo not drawn) [Example 11] showed an IC50 (CCKB receptor; CCKB IC50, Table 1) of 2700 nM.
Cc1c(NC2N=C(c3ccccc3)c3cc(Cl)ccc3NC2=O)c(=O)n(-c2ccccc2)n1C (stereo not drawn) [Example 13] showed an IC50 (CCKB receptor; Table 2, read-out: IC50 CCKB) of 9300 nM.
In the case of O=C1Nc2ccc(Cl)cc2C(c2ccccc2)=NC1N1CCCc2ccccc21 (stereo not drawn) [Example 17, 7-chloro-3-[3,4-dihydroquinolin-1(2H)-yl]-5-phenyl-1,3-dihydro-2H-1,4-benzodiazepin-2-one], the IC50 (CCKB receptor; IC50 CCKB, Table 2) is reported as 7200 nM.
CC(=O)c1ccccc1NC1N=C(c2ccccc2)c2cc(Cl)ccc2NC1=O (stereo not drawn) [Example 18, 3-(2 acetylanilino)-7-chloro-5-phenyl-1,3-dihydro-2H-1,4-benzodiazepin-2-one] showed an IC50 (CCKB receptor; IC50 CCKB, Table 2) of 8400 nM.
COc1cccc(NC2N=C(c3ccccc3)c3cc(Cl)ccc3NC2=O)c1 (stereo not drawn) [Example 19, 7-chloro-3-(3-methoxyanilino)-5-phenyl-1,3-dihydro-2H-1,4-benzodiazepin-2-one] gave an IC50 (CCKB receptor; IC50 CCKB, Table 2) of 1500 nM.
With COc1ccc(NC2N=C(c3ccccc3)c3cc(Cl)ccc3NC2=O)cc1OC (stereo not drawn) [Example 20, 7-chloro-3-(3,4-dimethoxyanilino)-5-phenyl-1,3-dihydro-2H-1,4-benzodiazepin-2-one] the IC50 (CCKB receptor; IC50 CCKB, Table 2) was 1200 nM.
COc1cc(NC2N=C(c3ccccc3)c3cc(Cl)ccc3NC2=O)cc(OC)c1C(C)=O (stereo not drawn) [Example 21, 3-(4-acetyl-3,5-dimethoxyanilino)-7-chloro-5-phenyl-1,3-dihydro-2H-1,4-benzodiazepin-2-one] gave an IC50 (CCKB receptor; Table 2, read-out: IC50 CCKB) of 5300 nM.
O=C1Nc2ccc(Cl)cc2C(c2ccccc2)=NC1Nc1ccccc1 (stereo not drawn) [Example 22, 3-anilino-7-chloro-5-phenyl-1,3-dihydro-2H-1,4-benzodiazepin-2-one] was tested, and the IC50 (CCKB receptor; IC50 CCKB, Table 2) was 4100 nM.
O=C1Nc2ccc(Cl)cc2C(c2ccccc2)=NC1NCc1ccccc1 (stereo not drawn) [Example 23, 3-(benzylamino)-7-chloro-5-phenyl-1,3-dihydro-2H-1,4-benzodiazepin-2-one] was tested, and the IC50 (CCKB receptor; IC50 CCKB, Table 2) was 6000 nM.
Compound CN(c1ccccc1)C1N=C(c2ccccc2)c2cc(Cl)ccc2NC1=O (stereo not drawn) [Example 24, 7-chloro-3-(methylanilino)-5-phenyl-1,3-dihydro-2H-1,4-benzodiazepin-2-one] has an IC50 (CCKB receptor; IC50 CCKB) of 150 nM.
Compound CN(Cc1ccccc1)C1N=C(c2ccccc2)c2cc(Cl)ccc2NC1=O (stereo not drawn) [Example 25] has an IC50 (CCKB receptor; IC50 CCKB, Table 2) of 2900 nM.
With CCCNC1N=C(c2ccccc2)c2cc(Cl)ccc2NC1=O (stereo not drawn) [Example 28, 3-(propylamino)-7-chloro-5-phenyl-1,3-dihydro-2H-1,4-benzodiazepin-2-one] the IC50 (CCKB receptor; IC50 CCKB, Table 2) was 8900 nM.
With O=C1Nc2ccc(Cl)cc2C(c2ccccc2)=NC1NC1CCCCC1 (stereo not drawn) [Example 30, 7-chloro-3-(cyclohexylamino)-5-phenyl-1,3-dihydro-2H-1,4-benzodiazepin-2-one] the IC50 (CCKB receptor; IC50 CCKB, Table 2) was 10100 nM.
Cc1ccc(NC2N=C(c3ccccc3)c3cc(Cl)ccc3NC2=O)cc1C (stereo not drawn) [Example 31, 7-chloro-3-(3,4-dimethylanilino)-5-phenyl-1,3-dihydro-2H-1,4-benzodiazepin-2-one] gave an IC50 (CCKB receptor; IC50 CCKB) of 920 nM.
In the case of O=C1Nc2ccc(Cl)cc2C(c2ccccc2)=NC1N1CCCCC1 (stereo not drawn) [Example 32, 7-chloro-3-(piperidin-1-yl)-5-phenyl-1,3-dihydro-2H-1,4-benzodiazepin-2-one], the IC50 (CCKB receptor; IC50 CCKB, Table 2) is reported as over 15000 nM.
CC(C)N(C1CCCCC1)C1N=C(c2ccccc2)c2cc(Cl)ccc2NC1=O (stereo not drawn) [Example 33, 7-chloro-3-(isopropylcyclohexylamino)-5-phenyl-1,3-dihydro-2H-1,4-benzodiazepin-2-one] was tested, and the IC50 (CCKB receptor; IC50 CCKB, Table 2) was over 15000 nM.
Work on CCN(C1CCCCC1)C1N=C(c2ccccc2)c2cc(Cl)ccc2NC1=O (stereo not drawn) [Example 34, 7-chloro-3-(ethylcyclohexylamino)-5-phenyl-1,3-dihydro-2H-1,4-benzodiazepin-2-one] yielded an IC50 (CCKB receptor; IC50 CCKB, Table 2) of over 15000 nM.
For O=C1Nc2ccc(Cl)cc2C(c2ccccc2)=NC1Nc1ccccc1[N+](=O)[O-] (stereo not drawn) [Example 35, 7-chloro-3-(2-nitroanilino)-5-phenyl-1,3-dihydro-2H-1,4-benzodiazepin-2-one], the IC50 (CCKB receptor; IC50 CCKB, Table 3) was 7500 nM and the IC50 (CCKA receptor; Table 3) was over 20000 nM.
With O=C1Nc2ccc(Cl)cc2C(c2ccccc2)=NC1Nc1cccc([N+](=O)[O-])c1 (stereo not drawn) [Example 36] the IC50 (CCKB receptor; IC50 CCKB, Table 3) was 6000 nM, the IC50 (CCKA receptor) was 11 nM and the “Ratio CCKB:CCKA” value (CCKA receptor; Table 3) was 545.
In the case of O=C1Nc2ccc(Cl)cc2C(c2ccccc2)=NC1Nc1ccc([N+](=O)[O-])cc1 (stereo not drawn) [Example 37], the IC50 (CCKB receptor; IC50 CCKB, Table 3) is reported as 8500 nM and the IC50 (CCKA receptor; Table 3) is reported as over 20000 nM.
Compound O=C1Nc2ccc(Cl)cc2C(c2ccccc2)=NC1Nc1ccccc1Cl (stereo not drawn) [Example 38] has an IC50 (CCKB receptor; IC50 CCKB, Table 3) of 9300 nM and an IC50 (CCKA receptor; Table 3) of over 20000 nM.
O=C1Nc2ccc(Cl)cc2C(c2ccccc2)=NC1Nc1cccc(Cl)c1 (stereo not drawn) [Example 39, 7-chloro-3-(3-chloroanilino)-5-phenyl-1,3-dihydro-2H-1,4-benzodiazepin-2-one] was tested, and the IC50 (CCKB receptor; IC50 CCKB, Table 3) was 6200 nM, the IC50 (CCKA receptor) was 270 nM and the “Ratio CCKB:CCKA” value (CCKA receptor; Table 3) was 23.
In the case of COc1ccccc1NC1N=C(c2ccccc2)c2cc(Cl)ccc2NC1=O (stereo not drawn) [Example 41], the IC50 (CCKB receptor; IC50 CCKB, Table 3) is reported as 1500 nM and the IC50 (CCKA receptor; Table 3) is reported as over 20000 nM.
For COc1cccc(NC2N=C(c3ccccc3)c3cc(Cl)ccc3NC2=O)c1 (stereo not drawn) [Example 42], the IC50 (CCKA receptor) was 10 nM and the “Ratio CCKB:CCKA” value (CCKA receptor; Table 3) was 450.
With C#CCN1C(=O)C(O)N=C(c2ccccc2)c2cc(Cl)ccc21 (stereo not drawn) [Example 58, 7-chloro-3-hydroxy-5-phenyl-1-prop-2-ynyl-1,3-dihydro-2H-1,4-benzodiazepin-2-one] the IC50 (CCKB receptor; [1]) was 960 nM.
In the case of O=C1C(O)N=C(c2ccccc2)c2cc(Cl)ccc2N1Cc1ccccc1 (stereo not drawn) [Example 59, 7-chloro-3-hydroxy-5-phenyl-1-benzyl-1,3-dihydro-2H-1,4-benzodiazepin-2-one], the IC50 (CCKB receptor; [1]) is reported as 760 nM.
C=CCN1C(=O)C(O)N=C(c2ccccc2)c2cc(Cl)ccc21 (stereo not drawn) [Example 60, 7-chloro-3-hydroxy-5-phenyl-1-allyl-1,3-dihydro-2H-1,4-benzodiazepin-2-one] showed an IC50 (CCKB receptor; [1]) of 980 nM.
In the case of CCOC(=O)N1C(=O)C(O)N=C(c2ccccc2)c2cc(Cl)ccc21 (stereo not drawn) [Example 61, 7-chloro-3-hydroxy-5-phenyl-1-ethoxycarbonyl-1,3-dihydro-2H-1,4-benzodiazepin-2-one], the IC50 (CCKB receptor; [1]) is reported as 690 nM.
For O=C(CN1C(=O)C(O)N=C(c2ccccc2)c2cc(Cl)ccc21)c1ccccc1 (stereo not drawn) [Example 62, 7-chloro-3-hydroxy-5-phenyl-1-phenacyl-1,3-dihydro-2H-1,4-benzodiazepin-2-one], the IC50 (CCKB receptor; [1]) was 200 nM.
